{"source": "the OligoGym collection", "details": "siRNA", "note": "HELM strings list units from the 5' end as sugar, base in round brackets, then linkage (d deoxyribose, r ribose, m 2'-O-methyl, p phosphodiester). Strings are as the collection lists them, not checked against the first reports. ss, as = sense and antisense strand; note: test system not given here", "data": [{"substance": "RNA1{m(G)p.r(G)p.m(U)p.r(A)p.m(G)p.r(A)p.m(A)p.r(U)p.m(A)p.r(G)p.m(G)p.r(U)p.m(U)p.r(U)p.m(U)p.r(C)p.m(C)p.r(C)p.m(C)p.r(T)p.r(T)}|RNA2{r(G)p.r(G)p.r(G)p.r(G)p.r(A)p.r(A)p.r(A)p.r(A)p.r(C)p.r(C)p.r(U)p.r(A)p.r(U)p.r(U)p.r(C)p.r(U)p.r(A)p.r(C)p.r(C)p.r(T)p.r(T)}$$$RNA1{StrandType:ss}|RNA2{StrandType:as}$", "values": [{"measurement": "target mRNA knockdown", "value": 11, "unit": "%"}]}, {"substance": "RNA1{m(G)p.r(G)p.m(U)p.r(A)p.m(G)p.r(G)p.m(G)p.r(U)p.m(U)p.r(G)p.m(A)p.r(A)p.m(G)p.r(A)p.m(G)p.r(A)p.m(C)p.r(U)p.r(U)p.r(T)p.r(T)}|RNA2{r(A)p.r(A)p.r(G)p.r(U)p.r(C)p.r(U)p.r(C)p.r(U)p.r(U)p.r(C)p.r(A)p.r(A)p.m(C)p.r(C)p.r(C)p.r(U)p.m(A)p.r(C)p.r(C)p.r(T)p.r(T)}$$$RNA1{StrandType:ss}|RNA2{StrandType:as}$", "values": [{"measurement": "target mRNA knockdown", "value": 58, "unit": "%"}]}, {"substance": "RNA1{m(G)p.r(U)p.m(A)p.r(C)p.m(U)p.r(C)p.m(U)p.r(G)p.m(A)p.r(U)p.m(G)p.r(A)p.m(G)p.r(G)p.m(A)p.r(A)p.m(G)p.r(A)p.m(G)p.r(T)p.r(T)}|RNA2{r(C)p.r(U)p.r(C)p.r(U)p.r(U)p.r(C)p.r(C)p.r(U)p.r(C)p.r(A)p.r(U)p.r(C)p.r(A)p.r(G)p.r(A)p.r(G)p.r(U)p.r(A)p.r(C)p.r(T)p.r(T)}$$$RNA1{StrandType:ss}|RNA2{StrandType:as}$", "values": [{"measurement": "target mRNA knockdown", "value": 18, "unit": "%"}]}, {"substance": "RNA1{m(G)p.r(U)p.m(A)p.r(U)p.m(C)p.r(C)p.m(G)p.r(A)p.m(A)p.r(G)p.m(A)p.r(C)p.m(G)p.r(A)p.m(A)p.r(G)p.m(C)p.r(U)p.m(A)p.r(T)p.r(T)}|RNA2{r(U)p.m(A)p.r(G)p.r(C)p.r(U)p.r(U)p.r(C)p.r(G)p.r(U)p.r(C)p.r(U)p.r(U)p.r(C)p.r(G)p.r(G)p.m(A)p.r(U)p.m(A)p.r(C)p.r(T)p.r(T)}$$$RNA1{StrandType:ss}|RNA2{StrandType:as}$", "values": [{"measurement": "target mRNA knockdown", "value": 30, "unit": "%"}]}, {"substance": "RNA1{m(G)p.r(U)p.m(C)p.r(U)p.m(A)p.r(U)p.m(G)p.r(C)p.m(C)p.r(A)p.m(A)p.r(G)p.m(A)p.r(A)p.m(G)p.r(G)p.m(G)p.r(A)p.m(G)p.r(T)p.r(T)}|RNA2{r(C)p.r(U)p.r(C)p.r(C)p.r(C)p.r(U)p.r(U)p.r(C)p.r(U)p.r(U)p.r(G)p.r(G)p.r(C)p.r(A)p.r(U)p.r(A)p.r(G)p.r(A)p.r(C)p.r(T)p.r(T)}$$$RNA1{StrandType:ss}|RNA2{StrandType:as}$", "values": [{"measurement": "target mRNA knockdown", "value": 24, "unit": "%"}]}, {"substance": "RNA1{m(U)p.r(A)p.m(A)p.r(A)p.m(C)p.r(U)p.m(U)p.r(U)p.m(G)p.r(G)p.m(G)p.r(G)p.m(A)p.r(A)p.m(G)p.r(G)p.m(G)p.r(A)p.m(G)p.r(T)p.r(T)}|RNA2{r(C)p.r(U)p.r(C)p.r(C)p.r(C)p.r(U)p.r(U)p.r(C)p.r(C)p.r(C)p.r(C)p.r(A)p.r(A)p.r(A)p.r(G)p.r(U)p.r(U)p.r(U)p.r(A)p.r(T)p.r(T)}$$$RNA1{StrandType:ss}|RNA2{StrandType:as}$", "values": [{"measurement": "target mRNA knockdown", "value": 34, "unit": "%"}]}, {"substance": "RNA1{m(U)p.r(A)p.m(A)p.r(A)p.m(G)p.r(C)p.m(U)p.r(G)p.m(G)p.r(A)p.m(A)p.r(A)p.m(G)p.r(G)p.m(G)p.r(A)p.m(C)p.r(G)p.m(G)p.r(T)p.r(T)}|RNA2{r(C)p.r(C)p.r(G)p.r(U)p.r(C)p.r(C)p.r(C)p.r(U)p.r(U)p.r(U)p.r(C)p.r(C)p.m(A)p.r(G)p.r(C)p.r(U)p.r(U)p.r(U)p.m(A)p.r(T)p.r(T)}$$$RNA1{StrandType:ss}|RNA2{StrandType:as}$", "values": [{"measurement": "target mRNA knockdown", "value": 29, "unit": "%"}]}, {"substance": "RNA1{m(U)p.r(A)p.m(G)p.r(C)p.m(C)p.r(A)p.m(G)p.r(A)p.m(G)p.r(C)p.m(C)p.r(A)p.m(A)p.r(A)p.r(G)p.m(A)p.r(A)p.r(G)p.r(C)p.r(T)p.r(T)}|RNA2{r(G)p.r(C)p.m(U)p.m(U)p.r(C)p.m(U)p.m(U)p.m(U)p.r(G)p.r(G)p.r(C)p.m(U)p.r(C)p.m(U)p.r(G)p.r(G)p.r(C)p.m(U)p.r(A)p.r(T)p.r(T)}$$$RNA1{StrandType:ss}|RNA2{StrandType:as}$", "values": [{"measurement": "target mRNA knockdown", "value": 75, "unit": "%"}]}, {"substance": "RNA1{m(U)p.r(A)p.r(A)p.r(A)p.r(C)p.r(U)p.r(U)p.m(U)p.r(G)p.r(G)p.r(G)p.r(G)p.r(A)p.r(A)p.r(G)p.r(G)p.r(G)p.r(A)p.r(G)p.r(T)p.r(T)}|RNA2{r(C)p.r(U)p.r(C)p.r(C)p.r(C)p.r(U)p.r(U)p.r(C)p.r(C)p.r(C)p.m(C)p.r(A)p.r(A)p.r(A)p.r(G)p.r(U)p.r(U)p.m(U)p.r(A)p.r(T)p.r(T)}$$$RNA1{StrandType:ss}|RNA2{StrandType:as}$", "values": [{"measurement": "target mRNA knockdown", "value": 67, "unit": "%"}]}, {"substance": "RNA1{m(U)p.r(A)p.r(A)p.r(A)p.r(C)p.r(U)p.r(U)p.r(U)p.r(G)p.r(G)p.r(G)p.r(G)p.r(A)p.r(A)p.r(G)p.r(G)p.r(G)p.r(A)p.r(G)p.r(T)p.r(T)}|RNA2{r(C)p.r(U)p.r(C)p.m(C)p.r(C)p.r(U)p.r(U)p.r(C)p.r(C)p.r(C)p.r(C)p.r(A)p.r(A)p.r(A)p.r(G)p.r(U)p.r(U)p.r(U)p.r(A)p.r(T)p.r(T)}$$$RNA1{StrandType:ss}|RNA2{StrandType:as}$", "values": [{"measurement": "target mRNA knockdown", "value": 72, "unit": "%"}]}, {"substance": "RNA1{m(U)p.r(A)p.r(A)p.r(A)p.r(G)p.r(C)p.m(U)p.r(G)p.r(G)p.r(A)p.r(A)p.r(A)p.r(G)p.r(G)p.r(G)p.r(A)p.r(C)p.r(G)p.r(G)p.r(T)p.r(T)}|RNA2{r(C)p.r(C)p.r(G)p.r(U)p.r(C)p.r(C)p.r(C)p.r(U)p.r(U)p.r(U)p.r(C)p.m(C)p.r(A)p.r(G)p.r(C)p.r(U)p.r(U)p.m(U)p.r(A)p.r(T)p.r(T)}$$$RNA1{StrandType:ss}|RNA2{StrandType:as}$", "values": [{"measurement": "target mRNA knockdown", "value": 65, "unit": "%"}]}, {"substance": "RNA1{m(U)p.r(A)p.r(A)p.r(A)p.r(G)p.r(C)p.r(U)p.r(G)p.r(G)p.r(A)p.r(A)p.r(A)p.r(G)p.r(G)p.r(G)p.r(A)p.r(C)p.r(G)p.r(G)p.r(T)p.r(T)}|RNA2{r(C)p.r(C)p.r(G)p.r(U)p.r(C)p.r(C)p.r(C)p.r(U)p.r(U)p.r(U)p.r(C)p.r(C)p.r(A)p.r(G)p.r(C)p.r(U)p.r(U)p.m(U)p.r(A)p.r(T)p.r(T)}$$$RNA1{StrandType:ss}|RNA2{StrandType:as}$", "values": [{"measurement": "target mRNA knockdown", "value": 67, "unit": "%"}]}, {"substance": "RNA1{m(U)p.r(A)p.r(C)p.r(C)p.r(G)p.r(A)p.r(G)p.r(A)p.r(A)p.m(U)p.r(G)p.r(A)p.r(G)p.r(C)p.r(C)p.m(U)p.r(G)p.r(A)p.r(U)p.r(T)p.r(T)}|RNA2{r(A)p.r(U)p.m(C)p.r(A)p.r(G)p.r(G)p.r(C)p.r(U)p.m(C)p.r(A)p.r(U)p.r(U)p.r(C)p.r(U)p.r(C)p.r(G)p.r(G)p.m(U)p.r(A)p.r(T)p.r(T)}$$$RNA1{StrandType:ss}|RNA2{StrandType:as}$", "values": [{"measurement": "target mRNA knockdown", "value": 54, "unit": "%"}]}, {"substance": "RNA1{m(U)p.r(A)p.r(C)p.r(C)p.r(G)p.r(A)p.r(G)p.r(A)p.r(A)p.r(U)p.r(G)p.r(A)p.r(G)p.r(C)p.r(C)p.r(U)p.r(G)p.r(A)p.r(U)p.r(T)p.r(T)}|RNA2{r(A)p.r(U)p.r(C)p.r(A)p.r(G)p.r(G)p.r(C)p.r(U)p.r(C)p.r(A)p.r(U)p.r(U)p.r(C)p.r(U)p.r(C)p.r(G)p.r(G)p.m(U)p.r(A)p.r(T)p.r(T)}$$$RNA1{StrandType:ss}|RNA2{StrandType:as}$", "values": [{"measurement": "target mRNA knockdown", "value": 55, "unit": "%"}]}, {"substance": "RNA1{m(U)p.r(A)p.r(G)p.r(C)p.m(C)p.r(A)p.r(G)p.r(A)p.r(G)p.r(C)p.m(C)p.r(A)p.r(A)p.r(A)p.r(G)p.r(A)p.r(A)p.r(G)p.r(C)p.r(T)p.r(T)}|RNA2{r(G)p.r(C)p.r(U)p.r(U)p.r(C)p.r(U)p.r(U)p.r(U)p.r(G)p.m(G)p.r(C)p.r(U)p.r(C)p.r(U)p.r(G)p.m(G)p.m(C)p.m(U)p.r(A)p.r(T)p.r(T)}$$$RNA1{StrandType:ss}|RNA2{StrandType:as}$", "values": [{"measurement": "target mRNA knockdown", "value": 85, "unit": "%"}]}, {"substance": "RNA1{m(U)p.r(A)p.r(G)p.r(C)p.r(C)p.r(A)p.r(G)p.r(A)p.r(G)p.r(C)p.r(C)p.r(A)p.r(A)p.r(A)p.r(G)p.r(A)p.r(A)p.r(G)p.r(C)p.r(T)p.r(T)}|RNA2{r(G)p.r(C)p.r(U)p.r(U)p.r(C)p.r(U)p.r(U)p.r(U)p.r(G)p.r(G)p.r(C)p.r(U)p.r(C)p.r(U)p.r(G)p.r(G)p.r(C)p.m(U)p.r(A)p.r(T)p.r(T)}$$$RNA1{StrandType:ss}|RNA2{StrandType:as}$", "values": [{"measurement": "target mRNA knockdown", "value": 82, "unit": "%"}]}, {"substance": "RNA1{m(U)p.r(C)p.m(C)p.r(C)p.m(U)p.r(U)p.m(C)p.r(C)p.m(A)p.r(C)p.m(C)p.r(G)p.m(C)p.r(C)p.m(A)p.r(U)p.m(A)p.r(U)p.m(U)p.r(T)p.r(T)}|RNA2{r(A)p.r(A)p.r(U)p.r(A)p.r(U)p.r(G)p.r(G)p.r(C)p.r(G)p.r(G)p.r(U)p.r(G)p.r(G)p.r(A)p.r(A)p.r(G)p.r(G)p.r(G)p.r(A)p.r(T)p.r(T)}$$$RNA1{StrandType:ss}|RNA2{StrandType:as}$", "values": [{"measurement": "target mRNA knockdown", "value": 11, "unit": "%"}]}, {"substance": "RNA1{m(U)p.r(C)p.m(C)p.r(U)p.m(A)p.r(G)p.m(C)p.r(U)p.m(G)p.r(U)p.m(C)p.r(U)p.m(U)p.r(G)p.m(U)p.r(C)p.m(C)p.r(C)p.m(U)p.r(T)p.r(T)}|RNA2{r(A)p.r(G)p.r(G)p.r(G)p.r(A)p.r(C)p.r(A)p.r(A)p.r(G)p.r(A)p.r(C)p.r(A)p.r(G)p.r(C)p.r(U)p.r(A)p.r(G)p.r(G)p.r(A)p.r(T)p.r(T)}$$$RNA1{StrandType:ss}|RNA2{StrandType:as}$", "values": [{"measurement": "target mRNA knockdown", "value": 27, "unit": "%"}]}, {"substance": "RNA1{m(U)p.r(C)p.m(C)p.r(U)p.m(C)p.r(G)p.m(U)p.r(C)p.m(G)p.r(U)p.m(C)p.r(U)p.m(G)p.r(U)p.m(U)p.r(C)p.m(U)p.r(A)p.m(A)p.r(T)p.r(T)}|RNA2{r(U)p.r(U)p.m(A)p.r(G)p.m(A)p.r(A)p.r(C)p.r(A)p.r(G)p.r(A)p.r(C)p.r(G)p.r(A)p.r(C)p.r(G)p.r(A)p.m(G)p.r(G)p.m(A)p.r(T)p.r(T)}$$$RNA1{StrandType:ss}|RNA2{StrandType:as}$", "values": [{"measurement": "target mRNA knockdown", "value": 63, "unit": "%"}]}, {"substance": "RNA1{m(U)p.r(C)p.m(U)p.r(A)p.m(C)p.r(A)p.m(C)p.r(C)p.m(G)p.r(C)p.m(G)p.r(C)p.m(C)p.r(C)p.m(C)p.r(C)p.m(C)p.r(U)p.m(C)p.r(T)p.r(T)}|RNA2{r(G)p.r(A)p.r(G)p.r(G)p.r(G)p.r(G)p.r(G)p.r(G)p.r(C)p.r(G)p.r(C)p.r(G)p.r(G)p.r(U)p.r(G)p.r(U)p.r(A)p.r(G)p.r(A)p.r(T)p.r(T)}$$$RNA1{StrandType:ss}|RNA2{StrandType:as}$", "values": [{"measurement": "target mRNA knockdown", "value": 39, "unit": "%"}]}, {"substance": "RNA1{m(U)p.r(C)p.m(U)p.r(C)p.m(G)p.r(U)p.m(A)p.r(A)p.m(G)p.r(G)p.m(A)p.r(C)p.m(G)p.r(A)p.m(A)p.r(A)p.m(C)p.r(G)p.r(A)p.r(T)p.r(T)}|RNA2{r(U)p.r(C)p.r(G)p.r(U)p.r(U)p.r(U)p.r(C)p.r(G)p.r(U)p.r(C)p.r(C)p.r(U)p.r(U)p.r(A)p.r(C)p.r(G)p.r(A)p.r(G)p.r(A)p.r(T)p.r(T)}$$$RNA1{StrandType:ss}|RNA2{StrandType:as}$", "values": [{"measurement": "target mRNA knockdown", "value": 34, "unit": "%"}]}]}
